Reference: patent US9464064B2, “HCV helicase inhibitors and methods of use thereof” (University of Kansas, priority 2011, dated 2016)
Like-named read-outs stand apart in the source and are kept apart here.

What was measured:
[1] = test system: HCV RLuc subgenomic replicon (genotype 1b) in Huh-7.5 cells; assay: HCV subgenomic replicon assay (Renilla luciferase); format: cell-based, hepatitis C virus; details: for inhibition at 10 µM: Hepatitis C virus; for ability to decrease the amount of HCV RNA present in the cultures: 10 μM
Source text: An HCV Renilla luciferase reporter construct (HCV RLuc; Huang, et al. (2006) Hepatology 43:81-90) was used to measure the effect of each compound on cellular HCV RNA levels. In HCV RLuc, the HCV internal ribosome entry site (IRES) drives the translation of the neomycin and Renilla luciferase genes while the HCV nonstructural proteins (NS3 to NS5B) are translated from the Encephalomyocarditis virus IRES (Huang, et al. (2006) supra). The plasmid DNA was cleaved with ScaI, purified by phenol/chloroform extraction followed by ethanol precipitation, and used as template for RNA transcription using […] T7 RNA transcription kit (Ambion, Austin, Tex.). The RNA transcripts were treated with 2 U DNase I (Ambion) at 37° C. for 30 minutes, purified by acid phenol/chloroform extraction, followed by isopropanol precipitation, and suspended in diethylpyrocarbonate-treated water. RNA concentration was determined by spectrophotometry by measuring the A260. RNA integrity and size was checked on 1% agarose gel. Transcribed RNA was stored in aliquots at −80° C. until needed.
Huh-7.5 cells were transfected with HCV RNA by electroporation. Briefly, subconfluent Huh7.5 cells were trypsinized, suspended in complete growth medium, and centrifuged at 1,000×g for 5 minutes at 4° C. The cell pellets were then washed twice with ice-cold phosphate-buffered saline (PBS) and suspended at 1.75×10^7 cells/mL in ice-cold PBS. Replicon RNA (5 μg) was mixed with 0.4 mL of cell suspension and transferred to 2 mm gap width electroporation cuvette (EPPENDORF AG, Germany) and pulsed 5 times for 99 μsec at 820 V over 1.1 sec intervals using the ECM 830 electroporator instrument (BTX Harvard Apparatus, Holliston, Mass.). After a 5 minute recovery period at room temperature, cells were transferred to 10 ml complete growth medium, and seeded into 10 cm diameter cell culture dishes. Twenty-four hours after transfection, the medium was replaced with fresh complete DMEM supplemented with 1 mg/ml geneticin (Invitrogen) and the medium was replaced every three to four days with fresh medium containing 1 mg/mL geneticin. Geneticin-resistant colonies were selected for a period of two weeks and expanded in the presence of 250 μg/mL geneticin.
HCV RLuc replicon cells were seeded at a density of 10×10^3 cells per well in 96-well plates and incubated for 4-5 hours to allow the cells to attach to the plate. The compounds dissolved in dimethyl sulfoxide (DMSO) were added at a final concentration of 10 μM (DMSO solvent final concentration was 0.5%) and the cells were incubated for 72 hours at 37° C. under 5% CO2 atmosphere. The effects of compounds on HCV replication were then assessed by measuring the Renilla luciferase activity in compound-treated versus DMSO-treated cells. At the end of the incubation period, the medium was aspirated and the cells were washed with 1×PBS. The Renilla luciferase reporter gene assay was performed using the Renilla luciferase assay kit (PROMEGA, Madison, Wis.) according to the manufacturer's instructions. Briefly, the cells were lysed by addition of 50 μL of 1× Renilla luciferase lysis buffer followed by two cycles of freeze/thaw. The luciferase activity content of the lysate was measured with a FLUOSTAR Omega microplate reader instrument (BMG Labtech, Germany) after injecting 50 μL of luciferase substrate and reading for 5 seconds.
To determine if the above identified compounds might be useful as HCV antiviral agents, they were added to cells harboring HCV subgenomic RNA replicon. The HCV replicon chosen was derived from the same HCV strain (genotype 1b) as the NS3 protein used for screening and enzyme assays. […] 75:4614-4624; Blight, et al. (2002) J. Virol. 76:13001-13014). […]

Huh-7.5 cells = assay: Cell viability assay ([…]-GLO); format: cell-based, human; details: for Cell viability (% viable): 10 μM compound, triplicate, average ± SD
Protocol: To assess compound toxicity toward Huh-7.5 cells, cells were plated and treated as above and cell viability was assessed using the […]-GLO luminescent cell viability kit (PROMEGA) following the manufacturer's instructions. Briefly, at the end of a 72 hour incubation period, the medium was aspirated and the cells were washed with 1×PBS, then an equal volume of growth medium and […]-GLO reagent was added and the lysis was initiated by mixing on an orbital shaker. The plate was incubated at 23° C. for 30 minutes and the luciferase activity was measured for 1 second using the FLUOSTAR Omega microplate reader (BMG Labtech).

[2] = Huh7.5, 10 μM, read-out: Replicon (% Inhibition @ 10 μM)
[3] = Huh7.5, 10 μM compound, triplicate, average ± SD, read-out: HCV replication (% Inh.)
[4] = Huh7.5, read-out: HCV replication (% Inh.)
[5] = Huh7.5, read-out: Replicon (% Inhibition @ 10 μM)

Compound	inhibition at 10 µM [1, 2] [%]	Cell Viability (% @ 10 μM) (Huh-7.5 cells) [%]	inhibition at 10 µM [1, 3] [%]	Cell viability (% viable) (Huh-7.5 cells) [%]	inhibition at 10 µM [1, 4] [%]	inhibition at 10 µM [1, 5] [%]	ability to decrease the amount of HCV RNA present in the cultures [1]
Cc1ccc2nc(-c3ccc4nc(-c5ccc(NC(=O)c6ccc7ncoc7c6)cc5)sc4c3)sc2c1S(=O)(=O)O	15 ± 11	114 ± 13					
Cc1ccc2nc(-c3ccc4nc(-c5ccc(NS(=O)(=O)c6ccc(C(F)(F)F)cc6)cc5)sc4c3)sc2c1S(=O)(=O)O	-7 ± 14	101 ± 6					
Cc1ccc2nc(-c3ccc(NC(=O)c4ccc(C(F)(F)F)cc4)cc3)sc2c1S(=O)(=O)O	11 ± 14	102 ± 9					
Cc1ccc2nc(-c3ccc(NC(=O)c4ccc(N)cc4)cc3)sc2c1S(=O)(=O)O	21 ± 29	103 ± 6					
Cc1ccc2nc(-c3ccc(NC(=O)c4ccc(NS(=O)(=O)c5ccccc5)cc4)cc3)sc2c1S(=O)(=O)O	-73 ± 50	119 ± 11					
Cc1ccc2nc(-c3ccc(NC(=S)Nc4ccccc4Br)cc3)sc2c1	80 ± 17	39 ± 10					
Cc1ccc2nc(-c3ccc4nc(NC(=O)c5ccc6ncoc6c5)sc4c3)sc2c1	90 ± 35	28 ± 5					
Cc1ccc2nc(-c3ccc4nc(-c5ccc(NC(=O)c6ccccc6)cc5)sc4c3)sc2c1S(=O)(=O)O [Compound 5, 2′-(4-benzamidophenyl)-6-methyl-[2,6′-bibenzo[d]thiazole]-7-sulfonic acid]	45 ± 5	88 ± 2	45 ± 5	88 ± 2			
Cc1ccc2nc(-c3ccc4nc(-c5ccc(NC(=O)c6ccc(N)cc6)cc5)sc4c3)sc2c1S(=O)(=O)O [Compound 6, 2′-(4-(4-aminobenzamido)phenyl)-6-methyl-[2,6′-bibenzo[d]thiazole]-7-sulfonic acid]	33 ± 1	93 ± 4	33 ± 1	93 ± 4			
Cc1ccc2nc(-c3ccc4nc(-c5ccc(NC(=O)c6ccc(F)cc6)cc5)sc4c3)sc2c1S(=O)(=O)O.N [Compound 7, 2′-(4-(4-fluorobenzamido)phenyl)-6-methyl-[2, bibenzo[d]thiazole]-7-sulfonic acid]	50 ± 5	94 ± 2	50 ± 5	94 ± 2			
COc1ccc(C(=O)Nc2ccc(-c3nc4ccc(-c5nc6ccc(C)c(S(=O)(=O)O)c6s5)cc4s3)cc2)cc1 [Compound 8, 2′-(4-(4-methoxybenzamido)phenyl)-6-methyl-[2,6′-bibenzo[d]thiazole]-7-sulfonic acid]		85 ± 5		85 ± 5	64 ± 4	64 ± 4	
COC(=O)c1ccc(C(=O)Nc2ccc(-c3nc4ccc(-c5nc6ccc(C)c(S(=O)(=O)O)c6s5)cc4s3)cc2)cc1 [Compound 9, 2′-(4-(4-(methoxycarbonyl)benzamido)phenyl)-6-methyl-[2,6′-bibenzo[d]thiazole]-7-sulfonic acid]	40 ± 1	101 ± 8	40 ± 1	101 ± 8			
Cc1ccc2nc(-c3ccc4nc(-c5ccc(NC(=O)c6ccc(Cl)cc6)cc5)sc4c3)sc2c1S(=O)(=O)O [Compound 10, 2′-(4-(4-chlorobenzamido)phenyl)-6-methyl-[2,6′-bibenzo[d]thiazole]-7-sulfonic acid]		84 ± 6		84 ± 6	42 ± 9	42 ± 9	
Cc1ccc(C(=O)Nc2ccc(-c3nc4ccc(-c5nc6ccc(C)c(S(=O)(=O)O)c6s5)cc4s3)cc2)cc1 [Compound 11, 6-methyl-2′-(4-(4-methylbenzamido)phenyl)-[2,6′-bibenzo[d]thiazole]-7-sulfonic acid]	52 ± 12	87 ± 4	52 ± 12	87 ± 4			
Cc1ccc2nc(-c3ccc4nc(-c5ccc(NC(=O)c6ccc(C(F)(F)F)cc6)cc5)sc4c3)sc2c1S(=O)(=O)O [Compound 12, 6-methyl-2′-(4-(4-(trifluoromethyl)benzamido)phenyl)-[2,6′-bibenzo[d]thiazole]-7-sulfonic acid]	44 ± 12	90 ± 4	44 ± 12	90 ± 4			
Cc1ccc2nc(-c3ccc4nc(-c5ccc(NC(=O)c6ccc(C(C)(C)C)cc6)cc5)sc4c3)sc2c1S(=O)(=O)O [Compound 13, 2′-(4-(4-(tert-butyl)benzamido)phenyl)-6-methyl-[2,6′-bibenzo[d]thiazole]-7-sulfonic acid]	51 ± 9	87 ± 4	51 ± 9	87 ± 4			
Cc1ccc2nc(-c3ccc4nc(-c5ccc(NC(=O)c6ccc(N(C)C)cc6)cc5)sc4c3)sc2c1S(=O)(=O)O [Compound 14, 2′-(4-(4-(dimethylamino)benzamido)phenyl)-6-methyl-[2,6′-bibenzo[d]thiazole]-7-sulfonic acid]	22 ± 2	94 ± 5	22 ± 2	94 ± 5			
Cc1ccc2nc(-c3ccc4nc(-c5ccc(NC(=O)c6ccc(Br)cc6)cc5)sc4c3)sc2c1S(=O)(=O)O [Compound 15, 2′-(4-(4-bromobenzamido)phenyl)-6-methyl-[2,6′-bibenzo[d]thiazole]-7-sulfonic acid]	7 ± 18	113 ± 5	7 ± 18	113 ± 5			
Cc1ccc2nc(-c3ccc4nc(-c5ccc(NC(=O)c6ccc(NC(=O)OCC7c8ccccc8-c8ccccc87)cc6)cc5)sc4c3)sc2c1S(=O)(=O)O [Compound 16, 2′-(4-(4-((((9H-fluoren-9-yl)methoxy)carbonyl)amino)benzamido)phenyl)-6-methyl-[2,6′-bibenzo[d]thiazole]-7-sulfonic acid]	57 ± 21	92 ± 4	57 ± 21	92 ± 4			
Cc1ccc2nc(-c3ccc4nc(-c5ccc6nc(-c7ccc(N)cc7)sc6c5)sc4c3)sc2c1S(=O)(=O)O [Compound P3, 2″-(4-aminophenyl)-6-methyl-[2,6′:2′,6″-terbenzo[d]thiazole]-7-sulfonic acid]							showed any ability to decrease the amount of HCV RNA present in the cultures
Cc1ccc2nc(-c3ccc4nc(-c5ccc6nc(-c7ccc8nc(-c9ccc(N)cc9)sc8c7)sc6c5)sc4c3)sc2c1S(=O)(=O)O [Compound P4, 2′″-(4-aminophenyl)-6-methyl-[2,6′:2″,6′″-quaterbenzo[d]thiazole]-7-sulfonic acid]							showed any ability to decrease the amount of HCV RNA present in the cultures
